Results reported in patent publication US20140031283A1, “ANTICANCER FUSION PROTEIN” (ADAMED SP. Z O.O., priority 2011, published 2014).

How the values were obtained:
[1] = tested on: human liver cancer model HepG2; experiment: HepG2 liver cancer xenograft in Crl:SHO-Prkdc^scidHr^hr mice; format: in vivo; conditions: 30 mg/kg i.v. six times every second day, 33rd day
Protocol: (§1) Antitumor activity of protein preparations was tested in a mouse model of human colon cancer HCT116, human colon cancer Colo205, human colon cancer model SW620, human liver cancer model HepG2, and human lung cancer models NCI-H460 and NCI-H460-Luc2.
The HepG2cells were maintained in MEM (HyClone, Logan, Utah, USA) supplemented with 10% fetal calf serum and 2 mM glutamine. On the day of mice grafting, the cells were detached from the support by washing the cells with trypsin (Invitrogen), then the cells were centrifuged at 1300 rpm, 4°C., 8 min., suspended in HBSS buffer (Hanks medium), counted and diluted to the concentration of 25×10^6 cells/ml.
Examination of antitumor activity of proteins of the invention was conducted on 7-9 week-old CD-nude (Crl:CD1-Foxn1^nu 1) or 4-6 week-old Crl:SHO-Prkdc^scidHr^hr mice obtained from Charles River Germany. Mice were kept under specific pathogen-free conditions with free access to food and demineralised water (ad libitum). All experiments on animals were carried in accordance with the guidelines: “Interdisciplinary Principles and Guidelines for the Use of Animals in Research. Marketing and Education” issued by the New York Academy of Sciences' Ad Hoc Committee on Animal Research and were approved by the IV Local Ethics Committee on Animal Experimentation in Warsaw (No. 71/2009). […]

[2] = tested on: human lung cancer NCI-H460; experiment: NCI-H460 lung cancer xenograft in Crl:SHO-PrkdcscidHrhr mice; format: in vivo; conditions: 30 mg/kg i.v. six times every second day, 28th day
Protocol: as §1
The HCT116 (in mice Crl:CD1-Foxn1^nu 1), Colo205, NCI-H460, NCI-H460-Luc2 cells were maintained in RPMI 1640 medium (Hyclone, Logan, Utah, USA) mixed in the ratio of 1:1 with Opti-MEM (Invitrogen, Cat.22600-134) supplemented with 10% fetal calf serum and 2 mM glutamine. On the day of mice grafting, the cells were detached from the support by washing the cells with trypsin (Invitrogen), then the cells were centrifuged at 1300 rpm, 4° C., 8 min., suspended in HBSS buffer (Hanks medium), counted and diluted to the concentration of 25×10^6 cells/ml.
Examination of antitumor activity of proteins of the invention was conducted on 7-9 week-old CD-nude (Crl:CD1-Foxn1^nu 1) or 4-6 week-old Crl:SHO-Prkdc^scidHr^hr mice obtained from Charles River Germany. Mice were kept under specific pathogen-free conditions with free access to food and demineralised water (ad libitum). All experiments on animals were carried in accordance with the guidelines: “Interdisciplinary Principles and Guidelines for the Use of Animals in Research. […]

A549 = experiment: MTT cytotoxicity test, A549 (human lung cancer); format: cell-based; conditions: continuous incubation over 72 h, test MTT
Text: MTT assay is a colorimetric assay used to measure proliferation, viability and cytotoxicity of cells. It consists in decomposition of a yellow tetrazolium salt MTT (4,5-dimethyl-2-thiazolyl)-2,5-diphenyltetrazolium bromide) to the water-insoluble purple dye formazan by mitochondrial enzyme succinate-tetrazolium reductase 1. MTT reduction occurs only in living cells. Data analysis consists in determining IC50 concentration of the protein (in ng/ml), at which the 50% reduction in the number of cells occurs in the population treated compared to control cells. Results were analyzed using GraphPad Prism 5.0 software. The test was performed according to the literature descriptions (Cells, J E, (1998). Cell Biology, a Laboratory Handbook, second edition, Academic Press, San Diego; Yang, Y., Koh, L W, Tsai, J H., (2004); Involvement of viral and chemical factors with oral cancer in Taiwan, Jpn J Clin Oncol, 34 (4), 176-183). Cell culture medium was diluted to a defined density (10^4-10^5 cells per 100 μl). Then 100 μl of appropriately diluted cell suspension was applied to a 96-well plate in triplicates. Thus prepared cells were incubated for 24 h at 37° C. in 5% or 10% CO2, depending on the medium used, and then to the cells (in 100 μl of medium) further 100 μl of the medium containing various concentrations of tested proteins were added. In the case of combination hTRAIL114-281 and p21WAF effector protein, 100 μl of the medium containing mixture of hTRAIL114-281 and p21WAF effector protein in molar ratio 1:1 was added. After incubation of the cells with tested proteins over the period of next 72 hours, which is equivalent to 3-4 times of cell division, the medium with the test protein was added with […] of MTT working solution [5 mg/ml], and incubation was continued for 3 h at 37° C. in 5% CO2. Then the medium with MTT solution was removed, and formazan crystals were dissolved by adding 100 μl of DMSO. After stirring, the absorbance was measured at 570 nm (reference filter 690 nm). […]

Substance: rhTRAIL114-281: recombinant human soluble TRAIL, amino acids 114-281 of hTRAIL, used as the comparative reference
- tumor growth inhibition (TGI) relative to the control [1]: 12.6%
- tumor growth inhibition (TGI) relative to the control [2]: 17.5%
- A549 IC50 (A549): >10 µg/mL
